Measured values as given in patent US8497385B2, “Bryostatin analogues, synthetic methods and uses” (The Board of Trustees of the Leland Stanford Junior …, priority 2007, dated 2013).

Assays:
MOLT-4 = assay: NCI growth inhibition, MOLT-4 (Leukemia); type: cell-based, human
A549/ATCC = assay: NCI growth inhibition, A549/ATCC (NSC Lung); type: cell-based, human
OVCAR-3 = assay: NCI growth inhibition, OVCAR-3 (Ovarian); type: cell-based, human
MDA-MB-435 = assay: NCI growth inhibition, MDA-MB-435 (Breast); type: cell-based, human
NCI-H322M = assay: NCI growth inhibition, NCI-H322M (NSC Lung); type: cell-based, human
ACHN = assay: NCI growth inhibition, ACHN (Renal); type: cell-based, human
COLO 205 = assay: NCI growth inhibition, COLO 205 (Colon); type: cell-based, human
SNB-75 = assay: NCI growth inhibition, SNB-75 (CNS); type: cell-based, human
UACC-62 = assay: NCI growth inhibition, UACC-62 (Melanoma); type: cell-based, human
K-562 = assay: NCI growth inhibition, K-562 (Leukemia); type: cell-based, human
PC-3 = assay: NCI growth inhibition, PC-3 (Prostate); type: cell-based, human
PKCδ-C1B = PKCδ-C1B (Homo sapiens (Human), UniProt Q05655); assay: PKCδ-C1B Assay; type: binding
SR = assay: NCI growth inhibition, SR (Leukemia); type: cell-based, human
SF-295 = assay: NCI growth inhibition, SF-295 (CNS); type: cell-based, human
OVCAR-8 = assay: NCI growth inhibition, OVCAR-8 (Ovarian); type: cell-based, human
LOX IMVI = assay: NCI growth inhibition, LOX IMVI (Melanoma); type: cell-based, human
NCI-H460 = assay: NCI growth inhibition, NCI-H460 (NSC Lung); type: cell-based, human
SK-OV-3 = assay: NCI growth inhibition, SK-OV-3 (Ovarian); type: cell-based, human
SN12C = assay: NCI growth inhibition, SN12C (Renal); type: cell-based, human
HOP-62 = assay: NCI growth inhibition, HOP-62 (NSC Lung); type: cell-based, human
SF-539 = assay: NCI growth inhibition, SF-539 (CNS); type: cell-based, human
RPMI-8226 = assay: NCI growth inhibition, RPMI-8226 (Leukemia); type: cell-based, human
HCT-116 = assay: NCI growth inhibition, HCT-116 (Colon); type: cell-based, human
NCI/ADR-RES = assay: NCI growth inhibition, NCI/ADR-RES (Breast); type: cell-based, human

PKCδ-C1B, sequence (Q05655 whole entry, looked up): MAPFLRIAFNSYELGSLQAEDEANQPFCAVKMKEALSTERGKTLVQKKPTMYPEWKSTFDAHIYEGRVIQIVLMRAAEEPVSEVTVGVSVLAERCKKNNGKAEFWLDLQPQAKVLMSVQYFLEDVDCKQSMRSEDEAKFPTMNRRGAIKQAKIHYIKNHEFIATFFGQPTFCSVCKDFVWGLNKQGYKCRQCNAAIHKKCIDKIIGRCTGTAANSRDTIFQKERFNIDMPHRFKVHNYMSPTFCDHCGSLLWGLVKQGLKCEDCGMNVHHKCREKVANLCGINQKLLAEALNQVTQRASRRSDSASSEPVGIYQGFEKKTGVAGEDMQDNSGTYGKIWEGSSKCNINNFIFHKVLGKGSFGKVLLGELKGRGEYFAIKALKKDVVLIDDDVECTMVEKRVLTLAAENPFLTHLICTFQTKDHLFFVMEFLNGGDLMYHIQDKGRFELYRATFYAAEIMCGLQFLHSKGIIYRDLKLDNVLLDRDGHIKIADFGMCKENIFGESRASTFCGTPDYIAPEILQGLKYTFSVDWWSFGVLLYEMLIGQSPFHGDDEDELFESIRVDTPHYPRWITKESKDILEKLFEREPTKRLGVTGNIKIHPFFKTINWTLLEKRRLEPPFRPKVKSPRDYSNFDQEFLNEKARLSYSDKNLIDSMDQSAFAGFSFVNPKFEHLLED

CCCCCCCC(=O)OC1C(=CC(=O)OC)CC2CC(CO)OC(=O)CC(O)CC3CCCC(CC4CCOC(C=CC(C)(C)C1(O)O2)O4)O3 (centres unmarked) [Formula IIa (702.1)]
Difference of GI50 (log), Desmethyl vs Bryo-1 (MOLT-4; MOLT-4): −2.50 | GI50 (MOLT-4; MOLT-4, Leukemia): <−8.0 log of molar concentration | more active than bryostatin-1 (MOLT-4; MOLT-4, Leukemia): more than 2 orders of magnitude | Difference of GI50 (log), Desmethyl vs Bryo-1 (A549/ATCC): −1.42 | GI50 (A549/ATCC; NSC Lung): −6.62 log of molar concentration | Difference of GI50 (log), Desmethyl vs Bryo-1 (OVCAR-3; OVCAR-3): 0.27 | GI50 (OVCAR-3; OVCAR-3, Ovarian): −4.83 log of molar concentration | Difference of GI50 (log), Desmethyl vs Bryo-1 (MDA-MB-435; MDA-MB-435): −2.56 | GI50 (MDA-MB-435; MDA-MB-435, Breast): −7.66 log of molar concentration | more active than bryostatin-1 (MDA-MB-435; MDA-MB-435, Breast): more than 2 orders of magnitude | Difference of GI50 (log), Desmethyl vs Bryo-1 (NCI-H322M): 1.62 | GI50 (NCI-H322M; NSC Lung): −4.38 log of molar concentration | Difference of GI50 (log), Desmethyl vs Bryo-1 (ACHN): −0.44 | GI50 (ACHN; Renal): −5.94 log of molar concentration | Difference of GI50 (log), Desmethyl vs Bryo-1 (COLO 205; COLO 205): −1.68 | GI50 (COLO 205; COLO 205, Colon): −7.08 log of molar concentration | Difference of GI50 (log), Desmethyl vs Bryo-1 (SNB-75; SNB-75): 0.53 | GI50 (SNB-75; SNB-75, CNS): −4.97 log of molar concentration | Difference of GI50 (log), Desmethyl vs Bryo-1 (UACC-62; UACC-62): 0.19 | GI50 (UACC-62; UACC-62, Melanoma): −5.11 log of molar concentration | Difference of GI50 (log), Desmethyl vs Bryo-1 (K-562; K-562): −2.10 | GI50 (K-562; K-562, Leukemia): −7.5 log of molar concentration | more active than bryostatin-1 (K-562; K-562, Leukemia): more than 2 orders of magnitude | Difference of GI50 (log), Desmethyl vs Bryo-1 (PC-3; PC-3): −0.30 | GI50 (PC-3; PC-3, Prostate): −5.6 log of molar concentration | activity in PKCδ-C1B assay relative to comparison analogues (PKCδ-C1B; 702.1 vs C26 methyl-containing analogue, 48, 49 vs other C20 esters): significantly higher activity | Ki (PKCδ-C1B; competition with tritiated phorbol 12,13-dibutyrate): 0.3 ± 0.07 nM | Difference of GI50 (log), Desmethyl vs Bryo-1 (SR): −0.10 | GI50 (SR; Leukemia): −5.1 log of molar concentration | Difference of GI50 (log), Desmethyl vs Bryo-1 (SF-295; SF-295): −0.85 | GI50 (SF-295; SF-295, CNS): −6.05 log of molar concentration | Difference of GI50 (log), Desmethyl vs Bryo-1 (OVCAR-8; OVCAR-8): 0.33 | GI50 (OVCAR-8; OVCAR-8, Ovarian): −4.77 log of molar concentration | Difference of GI50 (log), Desmethyl vs Bryo-1 (LOX IMVI): −0.37 | GI50 (LOX IMVI; Melanoma): −5.47 log of molar concentration | Difference of GI50 (log), Desmethyl vs Bryo-1 (NCI-H460; NCI-H460): −2.40 | GI50 (NCI-H460; NCI-H460, NSC Lung): <−8 log of molar concentration | more active than bryostatin-1 (NCI-H460; NCI-H460, NSC Lung): more than 2 orders of magnitude | Difference of GI50 (log), Desmethyl vs Bryo-1 (SK-OV-3; SK-OV-3): 0.80 | GI50 (SK-OV-3; SK-OV-3, Ovarian): −4.3 log of molar concentration | Difference of GI50 (log), Desmethyl vs Bryo-1 (SN12C): −0.49 | GI50 (SN12C; Renal): −5.59 log of molar concentration | GI50 (HOP-62): −4.79 log of molar concentration | Difference of GI50 (log), Desmethyl vs Bryo-1 (SF-539; SF-539): −0.77 | GI50 (SF-539; SF-539, CNS): −5.77 log of molar concentration | Difference of GI50 (log), Desmethyl vs Bryo-1 (RPMI-8226; RPMI-8226): −0.82 | GI50 (RPMI-8226; RPMI-8226, Leukemia): −5.82 log of molar concentration | Difference of GI50 (log), Desmethyl vs Bryo-1 (HCT-116; HCT-116): −0.02 | GI50 (HCT-116; HCT-116, Colon): −5.32 log of molar concentration | GI50 (NCI/ADR-RES): −4.74 log of molar concentration
